Key:
Format in all cases: functional
Settings in all cases: read-out: DIZ
Staphylococcus aureus [1] = experiment: Antibacterial activity against Staphylococcus aureus at 0.25 mol/L after 12 to 24 hrs by paper disc method
Penicillium citrinum [2] = experiment: Antifungal activity against Penicillium citrinum at 0.25 mol/L after 2 to 4 days by paper disc method
Escherichia coli [3] = experiment: Antibacterial activity against Escherichia coli at 0.25 mol/L after 12 to 24 hrs by paper disc method
Penicillium citrinum [4] = experiment: Antifungal activity against Penicillium citrinum at 0.03 mol/L after 2 to 4 days by paper disc method
Escherichia coli [5] = experiment: Antibacterial activity against Escherichia coli at 0.03 mol/L after 12 to 24 hrs by paper disc method
Penicillium citrinum [6] = experiment: Antifungal activity against Penicillium citrinum at 0.06 mol/L after 2 to 4 days by paper disc method
Staphylococcus aureus [7] = experiment: Antibacterial activity against Staphylococcus aureus at 0.06 mol/L after 12 to 24 hrs by paper disc method
Staphylococcus aureus [8] = experiment: Antibacterial activity against Staphylococcus aureus at 0.03 mol/L after 12 to 24 hrs by paper disc method
Staphylococcus aureus [9] = experiment: Antibacterial activity against Staphylococcus aureus at 0.13 mol/L after 12 to 24 hrs by paper disc method
Aspergillus niger [10] = experiment: Antifungal activity against Aspergillus niger at 0.06 mol/L after 2 to 4 days by paper disc method
Escherichia coli [11] = experiment: Antibacterial activity against Escherichia coli at 0.06 mol/L after 12 to 24 hrs by paper disc method
Aspergillus niger [12] = experiment: Antifungal activity against Aspergillus niger at 0.25 mol/L after 2 to 4 days by paper disc method
Penicillium citrinum [13] = experiment: Antifungal activity against Penicillium citrinum at 0.13 mol/L after 2 to 4 days by paper disc method
Aspergillus niger [14] = experiment: Antifungal activity against Aspergillus niger at 0.13 mol/L after 2 to 4 days by paper disc method
Escherichia coli [15] = experiment: Antibacterial activity against Escherichia coli at 0.13 mol/L after 12 to 24 hrs by paper disc method
Aspergillus niger [16] = experiment: Antifungal activity against Aspergillus niger at 0.03 mol/L after 2 to 4 days by paper disc method

Compound | zone of inhibition at 250000 µM (Staphylococcus aureus [1]) | zone of inhibition at 250000 µM (Penicillium citrinum [2]) | zone of inhibition at 250000 µM (Escherichia coli [3]) | zone of inhibition at 30000 µM (Penicillium citrinum [4]) | zone of inhibition at 30000 µM (Escherichia coli [5]) | zone of inhibition at 60000 µM (Penicillium citrinum [6]) | zone of inhibition at 60000 µM (Staphylococcus aureus [7]) | zone of inhibition at 30000 µM (Staphylococcus aureus [8]) | zone of inhibition at 130000 µM (Staphylococcus aureus [9]) | zone of inhibition at 60000 µM (Aspergillus niger [10]) | zone of inhibition at 60000 µM (Escherichia coli [11]) | zone of inhibition at 250000 µM (Aspergillus niger [12]) | zone of inhibition at 130000 µM (Penicillium citrinum [13]) | zone of inhibition at 130000 µM (Aspergillus niger [14]) | zone of inhibition at 130000 µM (Escherichia coli [15]) | zone of inhibition at 30000 µM (Aspergillus niger [16])
O=C(O)CC[C@H](/N=C/C=C/c1ccccc1)C(=O)O | 19.7 mm | 38 mm | 26 mm | 9.7 mm | 8 mm | 14 mm | 8 mm | 8 mm | 8.2 mm | 13.8 mm | 8 mm | 25 mm | 25.3 mm | 22.7 mm | 15 mm | 8 mm
COc1ccc(/C=C/C=N/CC(=O)O)cc1 | 8.7 mm | 21 mm | 13.5 mm | 11.5 mm | 8 mm | 8.7 mm | 9 mm | 8 mm | 8 mm | 8 mm | 8 mm | 23.3 mm | 11.7 mm | 17.7 mm | 8 mm | 11.3 mm
COc1ccc(/C=C/C=N/[C@H](C(=O)O)C(C)C)cc1 | 9 mm | 14.3 mm | 9 mm | 8 mm | 8 mm | 12.7 mm | 8 mm | 8 mm | 8 mm | 10.3 mm | 12 mm | 16.7 mm | 11.7 mm | 13.3 mm | 8 mm | 9 mm
COc1ccc(/C=C/C=N/[C@@H](CCC(=O)O)C(=O)O)cc1 | 8.3 mm | 20.7 mm | 18.7 mm | 11.5 mm | 8 mm | 13.3 mm | 8.3 mm | 8 mm | 8 mm | 13.2 mm | 11.3 mm | 23.2 mm | 25.3 mm | 20.3 mm | 11.7 mm | 8.8 mm
O=C/C=C/c1ccccc1 [CINNAMALDEHYDE] | 10.5 mm | 29.7 mm | 29.5 mm | 12.2 mm | 8 mm | 15 mm | 8 mm | 8 mm | 9 mm | 16 mm | 11 mm | 26.7 mm | 28.7 mm | 22.3 mm | 11 mm | 8 mm
O=C(O)[C@H](Cc1ccc(O)cc1)/N=C/C=C/c1ccc(Cl)cc1 | 19.3 mm | 25 mm | 17.8 mm | 11.5 mm | 13.7 mm | 15.7 mm | 11.7 mm | 9.7 mm | 12.7 mm | 15.5 mm | 15.7 mm | 29.7 mm | 23.5 mm | 15.7 mm | 12 mm | 12.3 mm
COc1ccc(/C=C/C=N/[C@@H](Cc2ccc(O)cc2)C(=O)O)cc1 | 8.5 mm | 24 mm | 18 mm | 10.8 mm | 12 mm | 19 mm | 8 mm | 8 mm | 8.7 mm | 13.8 mm | 8.3 mm | 19.5 mm | 16.5 mm | 14.7 mm | 12.3 mm | 10.3 mm
COc1ccc(/C=C/C=N/[C@@H](CC(=O)O)C(=O)O)cc1 | 8 mm | 34.3 mm | 9.5 mm | 8 mm | 10.3 mm | 12.8 mm | 8.3 mm | 8 mm | 10.2 mm | 11.2 mm | 10 mm | 16.3 mm | 23.7 mm | 22.5 mm | 10 mm | 8 mm
O=C(O)C[C@H](/N=C/C=C/c1ccc(Cl)cc1)C(=O)O | 30.3 mm | 32.3 mm | 25.2 mm | 24.5 mm | 8 mm | 25 mm | 8.5 mm | 9.2 mm | 18.3 mm | 19.3 mm | 13 mm | 29 mm | 23.3 mm | 15.7 mm | 12 mm | 14.3 mm
CC(/N=C/C=C/c1ccc(Cl)cc1)C(=O)O (stereo not given) | 33.7 mm | 30.3 mm | 12.2 mm | 17.3 mm | 12 mm | 24.7 mm | 10.5 mm | 8.7 mm | 33.5 mm | 19.3 mm | 11.5 mm | 26.7 mm | 26.3 mm | 24.7 mm | 12.5 mm | 13.8 mm
O=C(O)c1cn(C2CC2)c2cc(N3CCNCC3)c(F)cc2c1=O [CIPROFLOXACIN] | 21 mm |  | 24.3 mm |  | 22.3 mm |  | 16.7 mm | 16 mm | 21 mm |  |  |  |  |  | 23.3 mm | 
OC(Cn1cncn1)(Cn1cncn1)c1ccc(F)cc1F [FLUCONAZOLE] |  | 13.3 mm |  | 8 mm |  | 9.2 mm |  |  |  | 17.7 mm |  | 25 mm | 13 mm | 18.7 mm |  | 14.5 mm
